Results as given in patent US4141986A, “Antibiotics 890A2 and 890A5” (Merck & Co., Inc., priority 1977, dated 1979).

What was measured:
[1] = Stability during desalting on Sephadex G-10; assay type: physicochemical; settings: pooled fractions at pH 4.1; A308/A260 ratio of 0.76
Protocol: Fractions 112 through 130 containing 890A2, are concentrated under reduced pressure to 5.5 ml. and the concentrate is applied to a column (2.15 × 70 cm.) of Sephadex G-10, and eluted with deionized water at a flow rate of 1 ml. per minute. Fractions of 2.85 ml. each are collected. The bioactivity as determined by assay against Salmonella gallinarum MB1287 appears in fractions 60 through 98. Fractions 78 through 90 have the highest A308 /A260 ratios, and these are pooled for lyophilization. The pH of the pooled fractions is 4.1, and is adjusted to 7.8 by addition of 8 μl of 1M ammonia.

[2] = system: Staphylococcus aureus ATCC 6538 P; test: In vitro antibacterial spectrum profile, agar diffusion; assay type: cell-based
[3] = system: Alcaligenes faecalis ATCC 213; test: as above; assay type: cell-based; settings: read-out: Inhib. Zone Diam.
[4] = system: Vibrio percolans +2 × 10^5 units/ml. penicillinase MB-1272; test: In vitro antibacterial spectrum profile, agar diffusion, with penicillinase; assay type: cell-based; settings: Comamonas terrigena, read-out: Inhib. Zone Diam.
[5] = system: Brucella bronchiseptica ATCC 4617; test: microbe, parasite or virus in culture; assay type: cell-based; settings: Bordetella bronchiseptica, ATCC4617, read-out: Inhib. Zone Diam.
[6] = system: Salmonella schottmuellari MB-2837; test: In vivo protection of intraperitoneally infected mice; settings: ip, at the time of infection and again 6 hours later; sample of 59 units/ml.; survival data of the seventh day
Protocol: In determining the in vivo activity, antibiotic 890A2 is dissolved in 0.15M NaCl, 0.01M sodium phosphate, pH 7.0, and diluted with water to provide five fourfold concentrations of drug for testing. Female white Swiss mice, averaging about 21 g. in weight, were infected intraperitoneally with the test organism suspended in broth. The numbers of organisms injected were determined by standard plate-count techniques. At the time of infection and again 6 hours later, certain of the mice were treated intraperitoneally with the antibiotic. Five mice were used for each concentration of drug tested. An additional two mice, not infected, were treated with the antibiotic to determine whether the amount of agent injected was toxic. Controls of five mice for each of several dilutions of the infecting culture were included in each test in order to calculate the numbers of organisms that were lethal to 50% of the infected, untreated mice (LD50). This calculation was made using survival data of the seventh day after infection, at which time the amount of drug that should protect 50% of the infected mice (ED50) also was calculated.
All animals receiving this challenge and not treated with antibiotic died within 48 hours of the infection. The efficacy of antibiotic 890A2, having a potency of 59 units/ml., against Salmonella schottmuellari MB-2837 is set forth below: […]

[7] = system: Difco penicillinase and lactamase(s) produced by a cephalosporin C-resistant strain of Vibrio percolans (MB-2566); test: Inactivation by penicillinase and lactamase(s), from the antibiotic spectra; assay type: cell-based; settings: judged from the spectra of Table III
Protocol: The test to determine the antibiotic spectrum profile of antibiotic 890A2 is carried out by saturating 1/4 inch diameter paper discs in a solution of antibiotic 890A2 in 5% methanol at a concentration of 5 μg./ml.; air drying the saturated paper discs and placing them on the surface of 100 × 15 mm. petri plates containing 5 ml. of seeded nutrient agar plus 0.2% yeast extract.
The test to determine the antibiotic spectrum profile of antibiotic 890A5 is carried out by application of a 0.015 ml. droplet of a 33 μg./ml. aqueous solution of the antibiotic on the surface of a 100 × 15 mm. petri plate containing 5 ml. of seeded nutrient agar plus 0.2% yeast extract.
The spectra of antibiotic 890A2 and 890A5 are quite similar, except for the resistance of 890A5 to inactivation by Difco penicillinase and by lactamase(s) produced by a cephalosporin C-resistant strain of Vibrio percolans (MB-2566).

Compound	stability during Sephadex G-10 desalting [1]	zone of inhibition at 5 µg/mL ([2]; ATCC6538, read-out: Inhib. Zone Diam.)	zone of inhibition at 5 µg/mL ([3]; ATCC213, 890A2 5 μg./ml., 1/4 inch paper disc)	zone of inhibition at 5 µg/mL ([4]; 890A2 5 μg./ml., 1/4 inch paper disc)	zone of inhibition at 5 µg/mL [5]	ED50 × 2 doses [6]	zone of inhibition at 33 µg/mL ([2]; ATCC6538, 890A5 33 μg./ml., 0.015 ml. droplet, read-out: Inhib. Zone Diam.)	zone of inhibition at 33 µg/mL ([3]; ATCC213, 890A5 33 μg./ml., 0.015 ml. droplet)	zone of inhibition at 33 µg/mL ([4]; 890A5 33 μg./ml., 0.015 ml. droplet)	zone of inhibition at 33 µg/mL [5]	inactivation by Difco penicillinase and by lactamase(s) of Vibrio percolans MB-2566 [7]
CC(=O)NC=CSC1=C(C(=O)O)N2C(=O)C(C(C)O)C2C1 (centres unmarked) [Antibiotic 890A2]	substantial degradation	34 mm	34 mm	7 mm	29 mm	19 Units	–	–	–	–	–
CC(=O)NC=CSC1=C(C(=O)O)N2C(=O)C(C(C)O)C2C1 (centres unmarked) [Antibiotic 890A5]	–	–	–	–	–	–	34 mm	25 mm	40 mm	22 mm	resistance
